Results from US20240150377A1, “MODULATORS OF CYSTIC FIBROSIS TRANSMEMBRANE CONDUCTANCE REGULATOR” (VERTEX PHARMACEUTICALS INCORPORATED, priority 2020, published 2024).
Where two headings read alike, the source gives them in different places.

Molecular target: CFTR (Homo sapiens, UniProt P13569)
Assay: Membrane potential dye, Enteroid Assay A
Format: cell-based
Settings: for Ent. A Max Activity: chloride transport as % of triple combination control (Enteroid Assay A); for EC50: human enteroid cells, 18-24 hours, acute 10 μM forskolin and 300 nM ivacaftor, read-out: Ent. A EC50
Method in brief: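 Human intestinal enteroids incubated 18-24 h at 37 °C with test compound, then loaded with 20 μM methyl oxonol (with CaCC inhibitors). Chloride transport triggered in chloride-free buffer with 10 μM forskolin, 100 μM IBMX, 300 nM Compound III; fluorescence read 15 min, expressed as % of a triple-combination corrector/potentiator control.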

Chain of CFTR (P13569 with tags, fused parts or gaps DEL508-508): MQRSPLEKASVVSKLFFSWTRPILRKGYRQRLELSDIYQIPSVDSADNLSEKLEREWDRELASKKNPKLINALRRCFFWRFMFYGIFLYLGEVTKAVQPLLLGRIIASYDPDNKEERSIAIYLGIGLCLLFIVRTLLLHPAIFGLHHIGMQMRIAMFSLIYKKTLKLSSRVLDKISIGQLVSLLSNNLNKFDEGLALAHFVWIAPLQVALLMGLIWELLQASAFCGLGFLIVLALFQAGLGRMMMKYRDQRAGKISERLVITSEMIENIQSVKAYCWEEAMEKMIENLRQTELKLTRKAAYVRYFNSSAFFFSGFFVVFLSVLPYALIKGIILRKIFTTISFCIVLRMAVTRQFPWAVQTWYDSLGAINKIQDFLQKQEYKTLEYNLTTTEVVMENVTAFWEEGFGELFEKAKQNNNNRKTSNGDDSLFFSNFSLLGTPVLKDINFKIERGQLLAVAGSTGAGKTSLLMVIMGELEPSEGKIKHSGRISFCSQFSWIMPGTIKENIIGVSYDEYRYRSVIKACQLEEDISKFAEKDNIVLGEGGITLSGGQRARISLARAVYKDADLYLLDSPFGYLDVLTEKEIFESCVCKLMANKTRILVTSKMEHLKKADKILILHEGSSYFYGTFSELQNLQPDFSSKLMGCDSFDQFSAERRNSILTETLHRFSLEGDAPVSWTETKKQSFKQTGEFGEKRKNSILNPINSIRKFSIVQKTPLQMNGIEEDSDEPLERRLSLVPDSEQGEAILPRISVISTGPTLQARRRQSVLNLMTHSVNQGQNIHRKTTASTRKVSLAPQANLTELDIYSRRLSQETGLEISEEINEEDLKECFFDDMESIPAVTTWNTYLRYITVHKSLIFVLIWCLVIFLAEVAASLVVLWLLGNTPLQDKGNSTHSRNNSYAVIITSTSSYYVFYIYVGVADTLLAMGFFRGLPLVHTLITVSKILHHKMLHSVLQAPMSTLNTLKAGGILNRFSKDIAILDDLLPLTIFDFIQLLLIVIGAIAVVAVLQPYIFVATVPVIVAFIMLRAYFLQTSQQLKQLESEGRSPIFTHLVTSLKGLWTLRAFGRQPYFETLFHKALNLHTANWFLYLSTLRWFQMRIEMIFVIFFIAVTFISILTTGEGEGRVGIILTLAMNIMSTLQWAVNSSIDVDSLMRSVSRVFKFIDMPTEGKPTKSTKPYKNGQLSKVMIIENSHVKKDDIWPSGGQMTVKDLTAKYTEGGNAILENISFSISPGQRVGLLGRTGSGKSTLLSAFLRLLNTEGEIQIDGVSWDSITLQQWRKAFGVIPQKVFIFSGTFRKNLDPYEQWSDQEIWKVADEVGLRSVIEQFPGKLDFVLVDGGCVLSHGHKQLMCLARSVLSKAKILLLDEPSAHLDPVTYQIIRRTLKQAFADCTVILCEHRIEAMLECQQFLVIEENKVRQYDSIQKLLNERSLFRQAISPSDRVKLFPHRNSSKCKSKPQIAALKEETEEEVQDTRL

SMILES	Ent. A Max Activity (Table 7)	EC50 (Table 7) [nM]	Ent. A Max Activity (Table 6)	EC50 (Table 6) [nM]
COc1ccc(CN2C(=O)c3cccc(c3)S(=O)(=O)Nc3nc(cc(-c4c(C)cccc4C)n3)OC[C@H]2C)cc1 [Compound 986]	++ (++ is 30-60%)	1000 to 3000	–	–
Cc1cccc(C)c1-c1cc2nc(n1)NS(=O)(=O)c1cccc(c1)C(=O)N(CCC(C)(C)C)[C@H](C)CO2 [Compound 987]	+ (+ is <30%)	< 1000	–	–
Cc1cccc(C)c1-c1cc2nc(n1)NS(=O)(=O)c1cccc(c1)C(=O)N(CCC1CCOCC1)[C@H](C)CO2 [Compound 988]	+ (+ is <30%)	3000 to 30000	–	–
Cc1cccc(C)c1-c1cc2nc(n1)NS(=O)(=O)c1cccc(c1)C(=O)N(Cc1ccc[nH]c1=O)[C@H](CC(C)C)CO2 [Compound 989]	–	–	+++ (+++ is >60%)	1000 to 3000
CCC(CC)CN1C(=O)c2cccc(c2)S(=O)(=O)Nc2nc(cc(-c3c(C)cccc3C)n2)OC[C@H]1CC(C)C [Compound 990]	–	–	+++ (+++ is >60%)	< 1000
Cc1cccc(C)c1-c1cc2nc(n1)NS(=O)(=O)c1cccc(c1)C(=O)N(C)[C@H](CC(C)C)[C@H](C)O2 [Compound 991]	–	–	+++ (+++ is >60%)	< 1000
Cc1cccc(C)c1-c1cc2nc(n1)NS(=O)(=O)c1cccc(c1)C(=O)N(C)[C@H](c1ccc(C(C)(C)C)cc1)CO2 [Compound 1010]	++ (++ is 30-60%)	< 1000	–	–
Cc1cccc(C)c1-c1cc2nc(n1)NS(=O)(=O)c1cccc(c1)C(=O)N(C)[C@H](c1ccc(C(C)(C)C)cc1)CO2 [Compound 1011]	+++ (+++ is >60%)	< 1000	–	–
C=CC1CN(CCC(C)C)C(=O)c2cccc(c2)S(=O)(=O)Nc2nc(cc(-c3c(C)cccc3C)n2)O1 (stereo not drawn) [Compound 1012]	–	–	++ (++ is 30-60%)	< 1000
Cc1cccc(C)c1-c1cc2nc(n1)NS(=O)(=O)c1cccc(c1)C(=O)N(C)CC(CN(C)CCC(C)(C)C)O2 (stereo not drawn) [Compound 1014]	–	–	+++ (+++ is >60%)	3000 to 30000
Cc1cccc(C)c1-c1cc2nc(n1)NS(=O)(=O)c1cccc(c1)C(=O)N(C)CC(CN1C3CCC[C@H]1CC3)O2 (stereo partly drawn) [Compound 1015]	–	–	+ (+ is <30%)	–
CNCCNCC1CN(C)C(=O)c2cccc(c2)S(=O)(=O)Nc2nc(cc(-c3c(C)cccc3C)n2)O1 (stereo not drawn) [Compound 1016]	–	–	+ (+ is <30%)	–
Cc1cccc(C)c1-c1cc2nc(n1)NS(=O)(=O)c1cccc(c1)C(=O)N(C)C[C@H](CNCCC(C)(C)C)O2 [Compound 1017]	–	–	+ (+ is <30%)	–
Cc1cccc(C)c1-c1cc2nc(n1)NS(=O)(=O)c1cccc(c1)C(=O)N(C)C[C@@H](CNCCC(C)(C)C)O2 [Compound 1018]	–	–	+ (+ is <30%)	–
Cc1cccc(C)c1-c1cc2nc(n1)NS(=O)(=O)c1cccc(c1)C(=O)N(C)CC(CNCCC(C)(C)C)O2 (stereo not drawn) [Compound 1019]	–	–	+ (+ is <30%)	–
Cc1cccc(C)c1-c1cc2nc(n1)NS(=O)(=O)c1cccc(c1)CN(CCC(C)CC(C)(C)C)[C@H](CC(C)C)CO2 (stereo partly drawn) [Compound 1022]	++ (++ is 30-60%)	< 1000	–	–
CC(=O)N1Cc2cccc(c2)S(=O)(=O)Nc2nc(cc(-c3c(C)cccc3C)n2)OC[C@H]1CC(C)C [Compound 1025]	+ (+ is <30%)	–	–	–
Cc1cccc(C)c1-c1cc2nc(n1)NS(=O)(=O)c1cccc(c1)CN(Cc1cc(C)c3[nH]ncc3c1)[C@H](CC(C)C)CO2 [Compound 1027]	+++ (+++ is >60%)	< 1000	–	–
Cc1cccc(C)c1-c1cc2nc(n1)NS(=O)(=O)c1cccc(c1)CN(Cc1cccnc1OCC1CC1)[C@H](CC(C)C)CO2 [Compound 1028]	+++ (+++ is >60%)	< 1000	–	–
Cc1cccc(C)c1-c1cc2nc(n1)NS(=O)(=O)c1cccc(c1)CN(Cc1ccc(Oc3ccccc3)cc1)[C@H](CC(C)C)CO2 [Compound 1030]	++ (++ is 30-60%)	< 1000	–	–
COc1ccc(CN2Cc3cccc(c3)S(=O)(=O)Nc3nc(cc(-c4c(C)cccc4C)n3)OC[C@H]2CC(C)C)cc1C(F)(F)F [Compound 1031]	++ (++ is 30-60%)	< 1000	–	–
Cc1cccc(C)c1-c1cc2nc(n1)NS(=O)(=O)c1cccc(c1)CN(Cc1ccc3c(c1)OC(F)(F)O3)[C@H](CC(C)C)CO2 [Compound 1032]	++ (++ is 30-60%)	< 1000	–	–

SMILES	Ent. A Max Activity (Table 7)	EC50 (Table 7) [nM]	Ent. A Max Activity (Table 6)	EC50 (Table 6) [nM]
Cc1cccc(C)c1-c1cc2nc(n1)NS(=O)(=O)c1cccc(c1)CN(Cc1cnc(C3CCCCC3)nc1)[C@H](CC(C)C)CO2 [Compound 1033]	++ (++ is 30-60%)	< 1000	–	–
Cc1cccc(C)c1-c1cc2nc(n1)NS(=O)(=O)c1cccc(c1)CN(Cc1ccccc1-c1ccccc1)[C@H](CC(C)C)CO2 [Compound 1034]	++ (++ is 30-60%)	< 1000	–	–
CCc1nccc(CN2Cc3cccc(c3)S(=O)(=O)Nc3nc(cc(-c4c(C)cccc4C)n3)OC[C@H]2CC(C)C)n1 [Compound 1035]	++ (++ is 30-60%)	< 1000	–	–
Cc1cccc(C)c1-c1cc2nc(n1)NS(=O)(=O)c1cccc(c1)CN(Cc1ccccc1OC(C)C)[C@H](CC(C)C)CO2 [Compound 1036]	++ (++ is 30-60%)	< 1000	–	–
Cc1cccc(C)c1-c1cc2nc(n1)NS(=O)(=O)c1cccc(c1)CN(Cc1ccccc1OCc1ccccc1)[C@H](CC(C)C)CO2 [Compound 1037]	++ (++ is 30-60%)	< 1000	–	–
CCOc1cc(CN2Cc3cccc(c3)S(=O)(=O)Nc3nc(cc(-c4c(C)cccc4C)n3)OC[C@H]2CC(C)C)ccc1OC [Compound 1038]	++ (++ is 30-60%)	< 1000	–	–
Cc1cccc(C)c1-c1cc2nc(n1)NS(=O)(=O)c1cccc(c1)CN(CCn1c(=O)oc3ccccc31)[C@H](CC(C)C)CO2 [Compound 1039]	++ (++ is 30-60%)	< 1000	–	–
Cc1cccc(C)c1-c1cc2nc(n1)NS(=O)(=O)c1cccc(c1)CN(CCc1ccccc1)[C@H](CC(C)C)CO2 [Compound 1040]	++ (++ is 30-60%)	< 1000	–	–
Cc1cccc(C)c1-c1cc2nc(n1)NS(=O)(=O)c1cccc(c1)CN(CC1CCOCC1)[C@H](CC(C)C)CO2 [Compound 1041]	+++ (+++ is >60%)	< 1000	–	–
COCCN1Cc2cccc(c2)S(=O)(=O)Nc2nc(cc(-c3c(C)cccc3C)n2)OC[C@H]1CC(C)C [Compound 1042]	+ +	< 1000	–	–
Cc1cccc(C)c1-c1cc2nc(n1)NS(=O)(=O)c1cccc(c1)CN(Cc1ccccc1)[C@H](CC(C)C)CO2 [Compound 1044]	–	–	++ (++ is 30-60%)	< 1000
COC1CCC(CC(=O)N2Cc3cccc(c3)S(=O)(=O)Nc3nc(cc(-c4c(C)cccc4C)n3)OC[C@H]2CC(C)C)CC1 (stereo partly drawn) [Compound 1045]	+ (+ is <30%)	–	–	–
Cc1cccc(C)c1-c1cc2nc(n1)NS(=O)(=O)c1cccc(c1)CN(C(=O)CC(C)(C)C)[C@H](CC(C)C)CO2 [Compound 1046]	+ (+ is <30%)	–	–	–
COC1CCC(CC(=O)N2Cc3cccc(c3)S(=O)(=O)Nc3nc(cc(-c4c(C)cccc4C)n3)OC[C@H]2CC(C)C)CC1 (stereo partly drawn) [Compound 1047]	+ (+ is <30%)	–	–	–
Cc1cccc(C)c1-c1cc2nc(n1)NS(=O)(=O)c1cccc(c1)CN(C(=O)CC1CCN(C)CC1)[C@H](CC(C)C)CO2 [Compound 1048]	+++ (+++ is >60%)	1000 to 3000	–	–
Cc1cccc(C)c1-c1cc2nc(n1)NS(=O)(=O)c1cccc(c1)CN(C(=O)CC(C)C)[C@H](CC(C)C)CO2 [Compound 1049]	+ (+ is <30%)	–	–	–
Cc1cccc(C)c1-c1cc2nc(n1)NS(=O)(=O)c1cccc(c1)CN(C(=O)CC1CCCCC1)[C@H](CC(C)C)CO2 [Compound 1050]	+ (+ is <30%)	1000 to 3000	–	–
Cc1cccc(C)c1-c1cc2nc(n1)NS(=O)(=O)c1cccc(c1)CN(C(=O)Cc1ccccc1)[C@H](CC(C)C)CO2 [Compound 1051]	++ (++ is 30-60%)	1000 to 3000	–	–
CCCC(=O)N1Cc2cccc(c2)S(=O)(=O)Nc2nc(cc(-c3c(C)cccc3C)n2)OC[C@H]1CC(C)C [Compound 1052]	++ (++ is 30-60%)	–	–	–
Cc1cccc(C)c1-c1cc2nc(n1)NS(=O)(=O)c1cccc(c1)C(=O)N(CCN1CCOCC1)[C@H](CC(C)C)CO2 [Compound 1108]	–	–	+++ (+++ is >60%)	< 1000
Cc1cccc(C)c1-c1cc2nc(n1)NS(=O)(=O)c1cccc(c1)C(=O)N(Cc1ccc(=O)[nH]c1)[C@H](CC(C)C)CO2 [Compound 1109]	–	–	+++ (+++ is >60%)	1000 to 3000
